Measured values reported in the CheMixHub ionic liquid set.

Test: xn = mol fraction of the nth substance listed
Conditions: 101 kPa

CCCCCC[n+]1ccn(C)c1.O=S(=O)([N-]S(=O)(=O)C(F)(F)C(F)(F)F)C(F)(F)C(F)(F)F + O
x2 = 0.187
Conditions	electrical conductivity [S/m]	viscosity [mPa·s]
293.15 K	–	122
295.15 K	0.15	–

CC[N+](CC)(CC)CC.[Br-] + CCCCCCCCCCCCCCn1cc[n+](C)c1.[Br-] + O
electrical conductivity [S/m], frequency 0.001 MHz
Conditions	298.15 K	308.15 K	318.15 K
x2 = 0, x1 = 1.802e-05	0.0115	0.0142	0.0177
x2 = 0, x1 = 3.604e-05	0.0198	0.024	0.0294
x2 = 0, x1 = 9.009e-05	0.0417	0.0509	0.0613

CCCCCC[n+]1ccn(C)c1.[Cl-] + CCCCCC[n+]1ccn(C)c1.F[B-](F)(F)F
Conditions	electrical conductivity [S/m]	viscosity [mPa·s]
303 K, x1 = 0.2	0.0846	–
303 K, x1 = 0.4	0.0415	–
303 K, x1 = 0.6	0.0196	–
303 K, x1 = 0.8	0.00783	–
303 K, x1 = 1	0.00318	–
303.15 K, x1 = 0.2	–	380
303.15 K, x1 = 0.4	–	800
303.15 K, x1 = 0.6	–	1835
308 K, x1 = 0.2	0.113	–
308 K, x1 = 0.4	0.0581	–
308 K, x1 = 0.6	0.029	–
308 K, x1 = 0.8	0.0123	–
308 K, x1 = 1	0.00531	–
308.15 K, x1 = 0.2	–	275
308.15 K, x1 = 0.4	–	550
308.15 K, x1 = 0.6	–	1194
313 K, x1 = 0.2	0.147	–
313 K, x1 = 0.4	0.0791	–
313 K, x1 = 0.6	0.0413	–
313 K, x1 = 0.8	0.0186	–
313 K, x1 = 1	0.00852	–
313.15 K, x1 = 0.2	–	204
313.15 K, x1 = 0.4	–	390
313.15 K, x1 = 0.6	–	810
313.15 K, x1 = 0.8	–	1892
318 K, x1 = 0.2	0.19	–
318 K, x1 = 0.4	0.106	–
318 K, x1 = 0.6	0.0575	–
318 K, x1 = 0.8	0.0272	–
318 K, x1 = 1	0.0133	–
318.15 K, x1 = 0.2	–	156
318.15 K, x1 = 0.4	–	283
318.15 K, x1 = 0.6	–	560
318.15 K, x1 = 0.8	–	1237
323 K, x1 = 0.2	0.24	–
323 K, x1 = 0.4	0.14	–
323 K, x1 = 0.6	0.0791	–
323 K, x1 = 0.8	0.0392	–
323 K, x1 = 1	0.0202	–
323.15 K, x1 = 0.2	–	122
323.15 K, x1 = 0.4	–	213
323.15 K, x1 = 0.6	–	400
323.15 K, x1 = 0.8	–	840
323.15 K, x1 = 1	–	1879
328 K, x1 = 0.2	0.299	–
328 K, x1 = 0.4	0.179	–
328 K, x1 = 0.6	0.106	–
328 K, x1 = 0.8	0.0547	–
328 K, x1 = 1	0.0295	–
328.15 K, x1 = 0.2	–	98
328.15 K, x1 = 0.4	–	163
328.15 K, x1 = 0.6	–	296
328.15 K, x1 = 0.8	–	580
328.15 K, x1 = 1	–	1228
333 K, x1 = 0.2	0.368	–
333 K, x1 = 0.4	0.227	–
333 K, x1 = 0.6	0.139	–
333 K, x1 = 0.8	0.0747	–
333 K, x1 = 1	0.0423	–
333.15 K, x1 = 0.2	–	78
333.15 K, x1 = 0.4	–	128
333.15 K, x1 = 0.6	–	220
333.15 K, x1 = 0.8	–	420
333.15 K, x1 = 1	–	840

CCCCCC(=O)[O-].C[NH+](C)Cc1ccccc1 + CN(C)C=O
viscosity [mPa·s]
Conditions	293.15 K	298.15 K	303.15 K	308.15 K	313.15 K	318.15 K	323.15 K	328.15 K
x1 = 0.005406	0.956	0.916	0.879	0.847	0.818	0.792	0.769	0.748
x1 = 0.008974	0.969	0.927	0.889	0.855	0.825	0.798	0.774	0.752
x1 = 0.01235	0.978	0.934	0.895	0.861	0.83	0.803	0.778	0.755
x1 = 0.01781	1.002	0.955	0.913	0.877	0.844	0.815	0.789	0.765
x1 = 0.01976	1	0.954	0.913	0.877	0.844	0.816	0.79	0.766
x2 = 0.9681	1.042	0.99	0.945	0.905	0.869	0.837	0.809	0.784
x2 = 0.9717	1.03	0.98	0.935	0.896	0.862	0.831	0.803	0.778
x2 = 0.9757	1.02	0.971	0.928	0.89	0.856	0.826	0.799	0.774
